ChEMBL document CHEMBL1132104, “Synthesis and SAR of thioester and thiol inhibitors of IMP-1 metallo-beta-lactamase” (Bioorg Med Chem Lett, 1999)

Assay: Inhibitory activity against IMP-1 metallo-beta-lactamase (MBL)

Compound	IC50
C[C@@H](NC(=O)c1cccc(N(C)C)c1)C(=O)S[C@H](Cc1ccc(-c2ccccc2)cc1)C(=O)O	15 µM
C=CCOC(=O)N[C@H](C)C(=O)S[C@H](Cc1ccc(-c2ccccc2)cc1)C(=O)O	4.4 µM
CC(=O)S[C@H](Cc1ccccc1)C(=O)O	12 µM
CC(=O)N[C@H](C)C(=O)S[C@H](Cc1ccc(-c2ccccc2)cc1)C(=O)O	18 µM
C[C@@H](NC(=O)CNC(=O)c1ccccc1)C(=O)S[C@H](Cc1ccc(-c2ccccc2)cc1)C(=O)O	50 µM
O=C(S[C@H](Cc1ccc2oc3ccccc3c2c1)C(=O)O)c1ccccc1	0.0013 µM
CC(=O)S[C@@H](Cc1ccc2oc3ccccc3c2c1)C(=O)O	160 µM
O=C(O)[C@@H](S)Cc1ccc2oc3ccccc3c2c1	0.25 µM
C[C@@H](NC(=O)CCC(=O)c1ccccc1)C(=O)S[C@H](Cc1ccc(-c2ccccc2)cc1)C(=O)O	0.25 µM
COc1cccc(C(=O)N[C@H](C)C(=O)S[C@H](Cc2ccc(-c3ccccc3)cc2)C(=O)O)c1	38 µM
CCCCC(=O)N[C@H](C)C(=O)S[C@H](Cc1ccc(-c2ccccc2)cc1)C(=O)O	4.8 µM
C[C@@H](NC(=O)CCCC(=O)O)C(=O)S[C@H](Cc1ccc(-c2ccccc2)cc1)C(=O)O	91 µM
O=C(S[C@H](Cc1ccc(-c2ccccc2)cc1)C(=O)O)c1ccccc1	0.00041 µM
O=C(O)[C@@H](S)Cc1ccc(-c2ccccc2)cc1	1.2 µM
O=C(O)[C@H](S)Cc1ccc2oc3ccccc3c2c1	0.023 µM
C[C@@H](NC(=O)Cc1ccc(O)cc1)C(=O)S[C@H](Cc1ccc(-c2ccccc2)cc1)C(=O)O	3.1 µM
CCCC(=O)N[C@H](C)C(=O)S[C@H](Cc1ccc(-c2ccccc2)cc1)C(=O)O	9.3 µM
COc1ccc(C(=O)N[C@H](C)C(=O)S[C@H](Cc2ccc(-c3ccccc3)cc2)C(=O)O)cc1	29 µM
CCCCCC(=O)N[C@H](C)C(=O)S[C@H](Cc1ccc(-c2ccccc2)cc1)C(=O)O	13 µM

Compound	IC50
O=C(O)[C@@H](S)Cc1ccccc1	3.7 µM
O=C(S[C@@H](Cc1ccccc1)C(=O)O)c1ccccc1	2.5 µM
O=C(S[C@H](Cc1ccccc1)C(=O)O)c1ccccc1	0.064 µM
CC(C)C(=O)N[C@H](C)C(=O)S[C@H](Cc1ccc(-c2ccccc2)cc1)C(=O)O	9.7 µM
C=CCOC(=O)N[C@H](C)C(=O)S[C@H](Cc1ccc2oc3ccccc3c2c1)C(=O)O	2.9 µM
O=C(S[C@@H](Cc1ccc2oc3ccccc3c2c1)C(=O)O)c1ccccc1	49 µM
O=C(S[C@@H](Cc1ccc(-c2ccccc2)cc1)C(=O)O)c1ccccc1	120 µM
CC(=O)N[C@H](C)C(=O)S[C@H](Cc1ccc2oc3ccccc3c2c1)C(=O)O	2 µM
CC(=O)S[C@@H](Cc1ccc(-c2ccccc2)cc1)C(=O)O	74 µM
C[C@@H](NC(=O)Cc1ccccc1)C(=O)S[C@H](Cc1ccc(-c2ccccc2)cc1)C(=O)O	5.8 µM
C[C@@H](NC(=O)Cc1cccnc1)C(=O)S[C@H](Cc1ccc(-c2ccccc2)cc1)C(=O)O	32 µM
COc1ccc(CC(=O)N[C@H](C)C(=O)S[C@H](Cc2ccc(-c3ccccc3)cc2)C(=O)O)cc1	12 µM
C[C@@H](NC(=O)c1ccccc1)C(=O)S[C@H](Cc1ccc(-c2ccccc2)cc1)C(=O)O	3.6 µM
CCC(=O)N[C@H](C)C(=O)S[C@H](Cc1ccc(-c2ccccc2)cc1)C(=O)O	9.5 µM
C[C@@H](NC(=O)CCC(=O)O)C(=O)S[C@H](Cc1ccc(-c2ccccc2)cc1)C(=O)O	4.7 µM
COc1cc(OC)c(C(=O)N[C@H](C)C(=O)S[C@H](Cc2ccc(-c3ccccc3)cc2)C(=O)O)c(OC)c1	46 µM
CC(C)CC(=O)N[C@H](C)C(=O)S[C@H](Cc1ccc(-c2ccccc2)cc1)C(=O)O	5.3 µM
C[C@@H](NC(=O)Cc1ccccc1OCc1ccccc1)C(=O)S[C@H](Cc1ccc(-c2ccccc2)cc1)C(=O)O	24 µM
C[C@@H](NC(=O)c1ccccc1)C(=O)S[C@H](Cc1ccc2oc3ccccc3c2c1)C(=O)O	1.5 µM

Compound	IC50
C[C@@H](NC(=O)c1ccccc1)C(=O)S[C@H](Cc1ccccc1)C(=O)O	20 µM
CC(=O)S[C@H](Cc1ccc2oc3ccccc3c2c1)C(=O)O	0.045 µM
C[C@@H](NC(=O)c1ccc2ccccc2c1)C(=O)S[C@H](Cc1ccc(-c2ccccc2)cc1)C(=O)O	18 µM
C=CCOC(=O)N[C@H](C)C(=O)S[C@H](Cc1ccccc1)C(=O)O	64 µM
C[C@@H](NC(=O)CSCC(=O)O)C(=O)S[C@H](Cc1ccc(-c2ccccc2)cc1)C(=O)O	13 µM
CC(=O)S[C@H](Cc1ccc(-c2ccccc2)cc1)C(=O)O	0.084 µM
C[C@@H](NC(=O)Cc1ccc(N(C)C)cc1)C(=O)S[C@H](Cc1ccc(-c2ccccc2)cc1)C(=O)O	55 µM
O=C(O)[C@H](S)Cc1ccccc1	0.086 µM
C[C@@H](NC(=O)Cc1cccc2ccccc12)C(=O)S[C@H](Cc1ccc(-c2ccccc2)cc1)C(=O)O	12 µM
C[C@@H](NC(=O)COc1ccccc1)C(=O)S[C@H](Cc1ccc(-c2ccccc2)cc1)C(=O)O	1 µM
C[C@@H](NC(=O)c1ccccc1)C(=O)S[C@@H](Cc1ccc2oc3ccccc3c2c1)C(=O)O	430 µM
C[C@@H](NC(=O)/C=C/c1ccccc1)C(=O)S[C@H](Cc1ccc(-c2ccccc2)cc1)C(=O)O	11 µM
C[C@@H](NC(=O)CCc1ccccc1)C(=O)S[C@H](Cc1ccc(-c2ccccc2)cc1)C(=O)O	15 µM
C/C=C/C(=O)N[C@H](C)C(=O)S[C@H](Cc1ccc(-c2ccccc2)cc1)C(=O)O	33 µM
CC(=O)S[C@@H](Cc1ccccc1)C(=O)O	740 µM
O=C(O)[C@H](S)Cc1ccc(-c2ccccc2)cc1	0.057 µM
C[C@@H](NC(=O)c1ccccc1)C(=O)SCC(=O)O	240 µM
CC(=O)N[C@H](C)C(=O)S[C@H](Cc1ccccc1)C(=O)O	63 µM
